# Measured values: US20110015080A1, “Solution-based methods for RNA expression profiling” (MASSACHUSETTS INSTITUTE OF TECHNOLOGY, priority 2005, published 2011)
# Values joined by “and” are separate entries in the source; they are usually repeats but may differ in a detail not shown here. Equal values may be shown once.
# Test system: HL60 (human promyelocytic leukemia) cells
# Assay: LMA-FlexMAP analysis of microtiter well cultures of HL60 cells treated with tretinoin or DMSO, KNN classification
# [1] = HL60 microtiter plate wells tretinoin40-47 (replicates)
structure (smiles),measurement,setting,value
"CC1=C(/C=C/C(C)=C/C=C/C(C)=C/C(=O)O)C(C)(C)CCC1 [tretinoin, all-trans-retinoic acid]",NM_000698 LUA#14 FlexMap level,[1],45.5 and 156 and 269 and 394 and 342 and 297.5 and 363 and 352
same,NM_000875 LUA#55 FlexMap level,[1],184 and 1002 and 1389.5 and 1772 and 1303 and 1192 and 1271 and 810
same,NM_000884 LUA#81 FlexMap level,[1],82 and 506 and 875 and 897 and 732.5 and 789 and 805 and 513.5
same,NM_000962 LUA#7 FlexMap level,[1],63.5 and 391 and 761 and 776 and 470 and 646.5 and 671.5 and 452
same,NM_001034 LUA#67 FlexMap level,[1],65 and 447 and 989 and 779 and 733.5 and 645 and 1063 and 476
same,NM_001101 LUA#34 FlexMap level,[1],260.5 and 1606 and 2206 and 2257 and 1647 and 1943 and 1881 and 904
same,NM_001469 LUA#79 FlexMap level,[1],65 and 320.5 and 885 and 739 and 765 and 734 and 561 and 370
same,NM_001498 LUA#18 FlexMap level,[1],126.5 and 890.5 and 1632 and 1563.5 and 1134 and 1467 and 1510 and 888
same,NM_001684 LUA#23 FlexMap level,[1],884 and 3012 and 3316.5 and 3512 and 3036 and 2755.5 and 2662 and 1478
same,NM_001948 LUA#84 FlexMap level,[1],255 and 1430 and 2470.5 and 2273.5 and 1891 and 2131 and 2132.5 and 1104
same,NM_001974 LUA#11 FlexMap level,[1],38.5 and 98 and 351 and 256 and 258 and 253.5 and 286.5 and 224
same,NM_002166 LUA#25 FlexMap level,[1],411.5 and 1693.5 and 2999 and 2964 and 2068 and 1985 and 2518 and 1239
same,NM_002358 LUA#53 FlexMap level,[1],64 and 339 and 572 and 611 and 366 and 481 and 531 and 433
same,NM_002467 LUA#90 FlexMap level,[1],383 and 983.5 and 1643 and 1800 and 1920 and 1518 and 1725 and 1034
same,NM_002468 LUA#40 FlexMap level,[1],48 and 285.5 and 324 and 728 and 896.5 and 343 and 632 and 464
same,NM_002539 LUA#74 FlexMap level,[1],94 and 559 and 886 and 952 and 715 and 861.5 and 822 and 535
same,NM_002624 LUA#36 FlexMap level,[1],53 and 180.5 and 397 and 381 and 330.5 and 336 and 400.5 and 394
same,NM_002664 LUA#38 FlexMap level,[1],73 and 478 and 906 and 798 and 599 and 773 and 748 and 512
same,NM_002970 LUA#42 FlexMap level,[1],92 and 298 and 598 and 589 and 622.5 and 577.5 and 586 and 478
same,NM_002982 LUA#45 FlexMap level,[1],286 and 2331 and 2514 and 4037 and 4231 and 2722 and 2898 and 1696.5
same,NM_003132 LUA#68 FlexMap level,[1],41 and 126 and 264.5 and 264 and 195.5 and 257 and 296 and 327.5
same,NM_003172 LUA#19 FlexMap level,[1],818 and 3200.5 and 3348 and 3577.5 and 2983 and 2898 and 2747 and 1471
same,NM_003332 LUA#43 FlexMap level,[1],274 and 646 and 1341.5 and 1324 and 1984.5 and 1651 and 2226 and 1241.5
same,NM_003581 LUA#62 FlexMap level,[1],62.5 and 372 and 962 and 808 and 751 and 735.5 and 801 and 515
same,NM_003644 LUA#17 FlexMap level,[1],69 and 255 and 415 and 428 and 359 and 374 and 395 and 302
same,NM_003752 LUA#82 FlexMap level,[1],115.5 and 536.5 and 1061 and 1015.5 and 768.5 and 1020 and 912.5 and 596
same,NM_003825 LUA#8 FlexMap level,[1],81.5 and 192.5 and 338 and 383.5 and 307.5 and 331 and 502 and 476.5
same,NM_003879 LUA#24 FlexMap level,[1],225 and 1355.5 and 1937.5 and 1983.5 and 1275 and 1677 and 1564 and 923
same,NM_004079 LUA#21 FlexMap level,[1],350 and 2202 and 3008 and 3030.5 and 2326 and 2816 and 2701 and 1488
same,NM_004095 LUA#59 FlexMap level,[1],72 and 383 and 714 and 665 and 496.5 and 650.5 and 593.5 and 442
same,NM_004106 LUA#44 FlexMap level,[1],47 and 142 and 253.5 and 302 and 321 and 271 and 273.5 and 267
same,NM_004134 LUA#76 FlexMap level,[1],78 and 432.5 and 873 and 866 and 531 and 759 and 744 and 493
same,NM_004152 LUA#31 FlexMap level,[1],58 and 337 and 710 and 811 and 628.5 and 782 and 652 and 408.5
same,NM_004514 LUA#46 FlexMap level,[1],176 and 834 and 1159.5 and 1224 and 964 and 992 and 1017 and 626
same,NM_004526 LUA#88 FlexMap level,[1],642 and 1081.5 and 1122 and 840 and 1033 and 1012 and 641.5
same,NM_004602 LUA#32 FlexMap level,[1],458.5 and 678 and 736.5 and 1957 and 1765.5 and 664 and 571.5 and 773.5
same,NM_004631 LUA#52 FlexMap level,[1],86.5 and 322 and 705 and 629 and 524 and 633 and 667 and 532
same,NM_004723 LUA#20 FlexMap level,[1],89 and 620 and 1056 and 982 and 761 and 886 and 853 and 494.5
same,NM_004741 LUA#89 FlexMap level,[1],131 and 383 and 972 and 1003 and 933 and 920 and 1126 and 571
same,NM_004759 LUA#37 FlexMap level,[1],40.5 and 67.5 and 186.5 and 169 and 134.5 and 142 and 145 and 190
same,NM_004782 LUA#4 FlexMap level,[1],163 and 811 and 1306 and 1264 and 1063.5 and 1077 and 1094 and 639
same,NM_005008 LUA#77 FlexMap level,[1],73 and 425 and 885 and 923 and 779.5 and 801 and 828 and 525
same,NM_005375 LUA#86 FlexMap level,[1],273 and 1380 and 2455 and 2357.5 and 2068 and 2193 and 2264 and 1273.5
same,NM_005566 LUA#85 FlexMap level,[1],129.5 and 862.5 and 1842.5 and 1550 and 1000 and 1282 and 1196 and 592
same,NM_005736 LUA#1 FlexMap level,[1],92 and 522 and 909 and 1432 and 1896 and 847 and 1205.5 and 695
same,NM_005914 LUA#60 FlexMap level,[1],303 and 1363 and 2538.5 and 2273 and 1739 and 1694 and 1933.5 and 1154.5
same,NM_005915 LUA#72 FlexMap level,[1],48 and 300 and 495 and 474 and 315.5 and 496 and 401.5 and 256.5
same,NM_005952 LUA#66 FlexMap level,[1],104 and 573 and 891 and 961 and 623.5 and 847.5 and 775 and 571
same,NM_005980 LUA#73 FlexMap level,[1],35.5 and 83 and 102 and 162 and 149 and 95 and 114 and 168
same,NM_006019 LUA#35 FlexMap level,[1],41 and 192.5 and 363 and 400.5 and 353 and 361 and 402 and 332
same,NM_006138 LUA#56 FlexMap level,[1],70 and 325.5 and 443 and 659.5 and 488 and 437 and 429 and 341
same,NM_006432 LUA#27 FlexMap level,[1],90 and 394 and 854.5 and 800 and 695 and 670 and 719 and 450
same,NM_006452 LUA#71 FlexMap level,[1],207.5 and 1176 and 1736 and 1656.5 and 1374 and 1531 and 1587 and 911.5
same,NM_006457 LUA#13 FlexMap level,[1],36 and 51 and 83 and 94 and 84 and 95 and 132 and 200
same,NM_006773 LUA#47 FlexMap level,[1],164 and 717 and 1137 and 1120.5 and 783 and 937.5 and 907 and 576.5
same,NM_006948 LUA#51 FlexMap level,[1],34 and 49 and 82 and 95 and 83 and 79.5 and 85.5 and 106.5
same,NM_006985 LUA#58 FlexMap level,[1],90 and 720 and 1223 and 1310 and 813 and 1136.5 and 983 and 635
same,NM_007282 LUA#16 FlexMap level,[1],778.5 and 3067.5 and 3626 and 3678 and 3097 and 3055 and 2958.5 and 1505
same,NM_007331 LUA#50 FlexMap level,[1],88 and 474 and 915.5 and 927.5 and 770 and 739 and 835 and 583
same,NM_013402 LUA#54 FlexMap level,[1],114 and 705 and 1150 (2×) and 806 and 1051.5 and 1087 and 711
same,NM_014288 LUA#48 FlexMap level,[1],154 and 477.5 and 801 and 816 and 527.5 and 706 and 650 and 453
same,NM_014333 LUA#26 FlexMap level,[1],180.5 and 949.5 and 1577 and 1549 and 1309 and 1337 and 1390 and 811
same,NM_014366 LUA#61 FlexMap level,[1],383 and 1773 and 2236 and 2380 and 1850 and 1787.5 and 1681.5 and 1009.5
same,NM_014573 LUA#70 FlexMap level,[1],43 and 143 and 320 and 325 and 274 and 243 and 407.5 and 300
same,NM_014962 LUA#5 FlexMap level,[1],152.5 and 726 and 1269 and 1290 and 1213 and 1076 and 1134 and 717
same,NM_015201 LUA#57 FlexMap level,[1],182 and 1154 and 1768 and 1714 and 1251 and 1398.5 and 1507 and 930.5
same,NM_016061 LUA#9 FlexMap level,[1],134 and 674 and 1086 and 1267.5 and 863 and 975 and 1073.5 and 741
same,NM_017440 LUA#49 FlexMap level,[1],101 and 405.5 and 707 and 774 and 716 and 607 and 693 and 477
same,NM_018115 LUA#63 FlexMap level,[1],746.5 and 3193 and 3722 and 4141 and 3225.5 and 3292.5 and 3054 and 1569
same,NM_018164 LUA#69 FlexMap level,[1],52 and 170 and 429 and 380 and 304.5 and 304 and 358.5 and 234
same,NM_018217 LUA#3 FlexMap level,[1],189 and 990 and 1514 and 1581 and 1499 and 1286 and 1386 and 854.5
same,NM_018256 LUA#83 FlexMap level,[1],102 and 717 and 1252 and 1104 and 692.5 and 1077 and 929 and 470
same,NM_018890 LUA#33 FlexMap level,[1],562 and 2557 and 3812.5 and 4178 and 4310 and 3724.5 and 2984 and 1462.5
same,NM_019058 LUA#75 FlexMap level,[1],258 and 1804 and 2807 and 2882 and 2288 and 2430 and 2201 and 1184
same,NM_020117 LUA#78 FlexMap level,[1],236.5 and 1585 and 2193 and 2242.5 and 1690 and 1988 and 1734 and 848.5
same,NM_021103 LUA#41 FlexMap level,[1],591.5 and 1730 and 2238 and 2731 and 2283 and 1975 and 1828.5 and 1027
same,NM_021203 (LUA#80) FlexMap level,[1],53 and 171 and 386 and 377.5 and 283.5 and 348 and 279
same,NM_021974 LUA#64 FlexMap level,[1],268 and 1606 and 2307 and 2301 and 1472 and 1996 and 1890 and 1117.5
same,NM_024045 LUA#65 FlexMap level,[1],85 and 495 and 831 and 833.5 and 527 and 681 and 728.5 and 471
same,NM_032571 LUA#15 FlexMap level,[1],31 and 109 and 203 and 222.5 and 165.5 and 191 and 270.5 and 253.5
same,NM_173823 LUA#6 FlexMap level,[1],84 and 594.5 and 1106.5 and 1168.5 and 1130.5 and 1080 and 1163 and 807
same,TFRC LUA#92 FlexMap level,[1],89 and 400 and 794 and 910.5 and 811 and 827.5 and 1042 and 592
same,NM_021203 (LUA#80) FlexMap level,"HL60 microtiter well cultures, one value per tretinoin well",416 and 381.5 and 345 and 387 and 409 and 426 and 427 and 412
